From ChEMBL document CHEMBL4715811, “Antagonists of Orexin Receptors as Potential Treatment of Sleep Disorders, Obesity, Eating Disorders, and Other Neurological and Psychiatric Disorders” (ACS Med Chem Lett, 2016)

Columns and labels:
Orexin receptor type 2 = target: T1, Orexin receptor type 2 (Homo sapiens, UniProt O43614); experiment: Antagonist activity at human OX2R expressed in CHO cells assessed as inhibition of orexin A-induced intracellular Ca2+ release by FLIPR assay; format: functional, cell-based
T1 sequence (O43614 whole entry): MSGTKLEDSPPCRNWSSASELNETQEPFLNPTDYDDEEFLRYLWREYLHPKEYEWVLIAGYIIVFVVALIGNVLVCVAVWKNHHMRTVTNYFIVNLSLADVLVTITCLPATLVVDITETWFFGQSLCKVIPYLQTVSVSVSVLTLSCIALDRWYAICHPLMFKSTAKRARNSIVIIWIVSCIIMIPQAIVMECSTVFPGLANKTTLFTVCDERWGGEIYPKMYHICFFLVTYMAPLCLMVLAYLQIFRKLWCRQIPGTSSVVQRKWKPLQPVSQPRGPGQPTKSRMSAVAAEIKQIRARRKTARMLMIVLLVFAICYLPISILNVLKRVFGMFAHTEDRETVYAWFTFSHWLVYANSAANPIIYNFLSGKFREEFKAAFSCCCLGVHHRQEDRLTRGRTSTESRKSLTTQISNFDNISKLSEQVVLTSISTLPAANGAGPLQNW

[1] = target: T2, Orexin/Hypocretin receptor type 1 (Homo sapiens, UniProt O43613); experiment: Antagonist activity at human OX1R expressed in CHO cells assessed as inhibition of orexin A-induced intracellular Ca2+ release by FLIPR assay; format: functional, cell-based
T2 sequence (O43613 whole entry): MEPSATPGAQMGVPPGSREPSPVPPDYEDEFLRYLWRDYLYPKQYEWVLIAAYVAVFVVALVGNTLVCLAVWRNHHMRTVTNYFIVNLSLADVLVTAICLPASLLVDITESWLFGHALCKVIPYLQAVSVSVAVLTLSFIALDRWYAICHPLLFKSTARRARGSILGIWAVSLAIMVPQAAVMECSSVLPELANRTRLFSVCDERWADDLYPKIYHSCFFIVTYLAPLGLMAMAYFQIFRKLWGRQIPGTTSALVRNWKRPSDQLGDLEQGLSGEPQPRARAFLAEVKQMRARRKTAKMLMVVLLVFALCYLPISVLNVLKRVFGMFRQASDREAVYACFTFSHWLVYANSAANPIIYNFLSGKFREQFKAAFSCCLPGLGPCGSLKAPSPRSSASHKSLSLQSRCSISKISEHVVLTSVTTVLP

Row | Structure (SMILES) | IC50 (Orexin receptor type 2) | IC50 [1]
1 | C[C@@H]1CC[C@@H](c2nc(CN(C)C)c(-c3ccccc3)o2)CN1C(=O)c1ccccc1-n1nccn1 | 983 nM | –
2 | CCOc1ccccc1C(=O)N1C[C@H](c2nc(C(C)(C)O)c(C)o2)CC[C@H]1C | 12 nM | –
3 | CC[C@](C)(O)c1nc([C@@H]2CC[C@@H](C)N(C(=O)c3cscc3-n3nccn3)C2)oc1C | 18 nM | 9770 nM
